{"source": "patent US9408889B2", "about": "“Fusion peptide designed to reduce plaque bacteria and yeast in the oral cavity” (RUTGERS, THE STATE UNIVERSITY OF NEW JERSEY, priority 2011, dated 2016)", "key": {"[1]": {"system": "Streptococcus mutans", "test": "Killing of Streptococcus mutans by lactoferrin variants and peptide", "type": "cell-based", "conditions": "synthetic peptide", "text": "Caries is the single most common chronic childhood disease, five times more common than asthma. Over 70% of children […] have cavities. Over 108 million Americans lack dental health insurance so that treatment of this infection is lacking. S. mutans is considered one of the microbes most associated with dental decay.\nOthers have shown that lactoferrin peptides have antimicrobial activity, but no one to date has shown that the antibacterial activity derived from this peptide is useful against organisms in the oral cavity. We have also determined that the peptide will have limited usefulness in the oral cavity unless it is linked to something that will allow the peptide to bind to a surface in the oral cavity. A fusion peptide comprising lactoferrin and statherin was previously developed, wherein the lactoferrin portion provided antimicrobial activity while the statherin portion enabled the fusion peptide to adhere to the tooth surface. […]\nLactoferrin (Lf or LF) is a multifunctional protein that is found in mammary secretion, tears and saliva and in the gastrointestinal tract. […] Further we then determined that pure lactoferrin would have limited usefulness in the oral cavity unless it was linked to something that would allow it to bind to the oral cavity."}, "[2]": {"conditions": "previously demonstrated; cited from earlier work"}, "[3]": {"system": "Candida", "test": "Two hour cell killing assay with supernatants from salivary-coated HAP or BECs", "type": "cell-based", "conditions": "sHAP incubated with peptide, washed, 1 hour release; 2 hour cell killing assay", "description": "The procedures depicted in FIG. 5 were carried out with two LF fusion peptides (ST-LF and PAK-LF). Salivary-coated HAP was incubated with ST-LF peptide for 30 minutes and then washed with PBS and the supernatant tested. Fresh PBS was added, and the salivary-coated HAP was further incubated for 1 hour. The salivary-coated HAP was again rinsed and the supernatant solution was then tested for anti-candidal activity. The results are depicted in FIG. 6."}, "[4]": {"system": "bacteria", "conditions": "cited from earlier work"}, "[5]": {"system": "oral bacteria", "conditions": "bacteria grown in a broth media; cited from earlier work"}}, "data": [{"substance": "LF: FQWQRNMRKVR, lactoferrin peptide, lys form (listed as Homo sapiens)", "values": [{"measurement": "killing of Streptococcus mutans", "setting": "[1]", "result": "kills Streptococcus mutans"}]}, {"substance": "ST-LF: DDDEEKFQWQRNMRKVR, statherin-lactoferrin fusion peptide of PCT/US08/51165 (ST-LF fusion peptide)", "values": [{"measurement": "binding to tooth enamel surfaces", "setting": "[2]", "result": "bind to tooth enamel surfaces"}, {"measurement": "anti-candidal activity of supernatant from salivary-coated HAP", "setting": "[3]", "result": "no inhibition of Candida"}]}, {"substance": "Penicillin", "values": [{"measurement": "adherence of bacteria to drug-treated, washed SHA", "setting": "[4]", "result": "no effect"}, {"measurement": "effective concentration against oral bacteria", "setting": "[5]", "result": 1, "unit": "µg/mL"}]}]}
